Assay results published in ChEMBL document CHEMBL5107971, “RpoN-Based stapled peptides with improved DNA binding suppress Pseudomonas aeruginosa virulence” (RSC Med Chem, 2022).
The source made the active and inactive calls. No cut-off for these calls is given here. Numbered stars: 1 amine (or outer) side, 2 acyl side, 3 side chain; on linkers, the order of the positions; unused ones are H or OH. Bridge positions count the residues as written; N and C are the ends. Square brackets hold non-standard residues; d marks the D form. Peptide text beside a SMILES is read from it. X1 = CC(C)[C@@H](CN[*:1])C(=O)[*:2]; S5 = C=CCCC[C@](C)(N)C(=O)O; Nle = CCCC[C@H](N)C(=O)O; Orn = NCCC[C@H](N)C(=O)O; βAla = NCCC(=O)O

Legend:
DNA [1] = assay: Inhibition of RpoN-mediated GlnAp2 transcription in Escherichia coli XL-1 Blue expressing GFP assessed as decrease in GFP levels at 10 uM incubated for 4 hrs under minimal nitrogen media by fluorescence based assay relative to control; assay type: nucleic-acid assay
[2] = Hemolytic activity in human RBC at 100 uM measured after 1 hrs relative to control; assay type: toxicity, cell-based, Erythrocyte; details: red blood cells (erythrocytes), read-out: Activity
dsDNA = assay: Binding affinity to FITC-labelled dsDNA (unknown origin) assessed as dissociation constant incubated for 10 mins by fluorescence polarization assay; assay type: nucleic-acid assay
Pseudomonas aeruginosa [3] = assay: Antibacterial activity against Pseudomonas aeruginosa assessed as inhibition of cell growth upto 32 ug/ml incubated overnight by microtiter broth dilution assay; assay type: functional; details: dose <= 32 µg/ml
[4] = Toxicity in Galleria mellonella larvae assessed as survivability at 10 mg/kg administered intra-hemocoelicly and measured after 24 hrs; assay type: organism-based; details: in vivo, other
Pseudomonas aeruginosa [5] = assay: Antibacterial activity against Pseudomonas aeruginosa infected in Galleria mellonella larvae assessed as enhancement of survival rate at 10 mg/kg administered intra-hemocoelicly and measured after 24 hrs relative to control; assay type: functional
Pseudomonas aeruginosa [6] = assay: Antibacterial activity against Pseudomonas aeruginosa infected in Galleria mellonella larvae assessed as enhancement of survival rate at 10 mg/kg administered intra-hemocoelicly and measured after 36 hrs relative to control; assay type: functional
DNA [7] = assay: Binding affinity to Escherichia coli GlnAp2 labelled with FITC assessed as dissociation constant incubated for 10 mins by fluorescence polarization assay; assay type: nucleic-acid assay

SMILES | inhibition (DNA [1]) | hemolysis at 1 h, 100 µM [2] [%] | Kd (dsDNA) [µM] | MIC (Pseudomonas aeruginosa [3]) [µg/mL] | Activity [4] | Activity (Pseudomonas aeruginosa [5]) | Activity (Pseudomonas aeruginosa [6]) [%] | Kd (DNA [7]) [µM]
CCCC[C@H](NC(=O)[C@H](CCC(=O)O)NC(=O)[C@H](CCCNC(=N)N)NC(=O)[C@@H](Cc1ccc(O)cc1)NC(=O)[C@H](CCCCN)NC(=O)[C@H](C)NC(=O)[C@]1(C)CCC/C=C\CCC[C@](C)(NC(=O)[C@@H](NC(=O)[C@H](CCCCN)NC(=O)CCNC(C)=O)C(C)C)C(=O)N[C@@H](CCCNC(=N)N)C(=O)N[C@@H](CCCNC(=N)N)C(=O)N[C@@H]([C@@H](C)O)C(=O)N1)C(=O)N[C@@H](CC(C)C)C(N)=O | Active | – | – | – | – | – | – | –
CCCC[C@H](NC(=O)[C@H](CCC(=O)O)NC(=O)[C@H](CCCNC(=N)N)NC(=O)[C@H](Cc1ccc(O)cc1)NC(=O)[C@H](CCCCN)NC(=O)[C@H](C)NC(=O)[C@]1(C)CCC/C=C\CCC[C@](C)(NC(=O)[C@@H](NC(=O)[C@H](CCCN)NC(=O)[C@H](Cc2ccccc2)NC(=O)CCNC(C)=O)C(C)C)C(=O)N[C@@H](CCCNC(=N)N)C(=O)N[C@@H](CCCNC(=N)N)C(=O)N[C@@H]([C@@H](C)O)C(=O)N1)C(=O)N[C@@H](CC(C)C)C(N)=O (Ac-[βAla]F[Orn]V[S5]RRT[S5]AKYRE[Nle]L-NH2; staple (Z) 5-9) | Active | – | – | – | – | – | – | –
CCCC[C@H](NC(=O)[C@H](CCC(=O)O)NC(=O)[C@H](CCCNC(=N)N)NC(=O)[C@H](Cc1ccc(O)cc1)NC(=O)[C@H](CCCCN)NC(=O)[C@H](C)NC(=O)[C@]1(C)CCC/C=C\CCC[C@](C)(NC(=O)[C@H](Cc2ccccc2)NC(=O)[C@H](CCCCN)NC(=O)[C@H](Cc2ccccc2)NC(=O)CCNC(C)=O)C(=O)N[C@@H](CCCNC(=N)N)C(=O)N[C@@H](CCCNC(=N)N)C(=O)N[C@@H]([C@@H](C)O)C(=O)N1)C(=O)N[C@@H](CC(C)C)C(N)=O (Ac-[βAla]FKF[S5]RRT[S5]AKYRE[Nle]L-NH2; staple (Z) 5-9) | Active | – | – | – | – | – | – | –
CCCC[C@H](NC(=O)[C@H](CCC(=O)O)NC(=O)[C@H](CCCNC(=N)N)NC(=O)[C@H](Cc1ccc(O)cc1)NC(=O)[C@H](CCCCN)NC(=O)[C@H](C)NC(=O)[C@]1(C)CCC/C=C\CCC[C@](C)(NC(=O)[C@H](C)NC(=O)[C@H](CCCCN)NC(=O)[C@H](Cc2ccccc2)NC(=O)CCNC(C)=O)C(=O)N[C@@H](CCCNC(=N)N)C(=O)N[C@@H](CCCNC(=N)N)C(=O)N[C@@H]([C@@H](C)O)C(=O)N1)C(=O)N[C@@H](CC(C)C)C(N)=O (Ac-[βAla]FKA[S5]RRT[S5]AKYRE[Nle]L-NH2; staple (Z) 5-9) | Active | – | – | – | – | – | – | –
CCCC[C@H](NC(=O)[C@H](CCC(=O)O)NC(=O)[C@H](CCCNC(=N)N)NC(=O)[C@H](Cc1ccc(O)cc1)NC(=O)[C@H](CCCCN)NC(=O)[C@H](C)NC(=O)[C@@H](NC(=O)[C@@H](NC(=O)[C@H](CCCNC(=N)N)NC(=O)[C@H](CCCNC(=N)N)NC(=O)[C@H](C)NC(=O)[C@@H](NC(=O)[C@H](CCCCN)NC(=O)[C@H](Cc1ccccc1)NC(=O)CCNC(C)=O)C(C)C)[C@@H](C)O)C(C)C)C(=O)N[C@@H](CC(C)C)C(N)=O (Ac-[βAla]FKVARRTVAKYRE[Nle]L-NH2) | – | 0.12 | – | – | – | – | – | –
CCCC[C@H](NC(=O)[C@H](CCC(=O)O)NC(=O)[C@H](CCCNC(=N)N)NC(=O)[C@H](Cc1ccc(O)cc1)NC(=O)[C@H](CCCCN)NC(=O)[C@H](C)NC(=O)[C@]1(C)CCC/C=C\CCC[C@](C)(NC(=O)[C@@H](NC(=O)[C@H](CCCCN)NC(=O)[C@H](Cc2ccccc2)NC(=O)CCNC(C)=O)C(C)C)C(=O)N[C@@H](CCCNC(=N)N)C(=O)N[C@@H](CCCCN)C(=O)N[C@@H]([C@@H](C)O)C(=O)N1)C(=O)N[C@@H](CC(C)C)C(N)=O (Ac-[βAla]FKV[S5]RKT[S5]AKYRE[Nle]L-NH2; staple (Z) 5-9) | Active | 3.3 | 0.947 | > 32 | – | – | – | –
CCCC[C@H](NC(=O)[C@H](CCC(=O)O)NC(=O)[C@H](CCCNC(=N)N)NC(=O)[C@H](Cc1ccc(O)cc1)NC(=O)[C@H](CCCCN)NC(=O)[C@@H](NC(=O)[C@]1(C)CCC/C=C\CCC[C@](C)(NC(=O)[C@H](C)NC(=O)[C@H](CCCCN)NC(=O)[C@H](Cc2ccccc2)NC(=O)CCNC(C)=O)C(=O)N[C@@H](CCCNC(=N)N)C(=O)N[C@@H](CCCNC(=N)N)C(=O)N[C@@H]([C@@H](C)O)C(=O)N1)C(C)C)C(=O)N[C@@H](CC(C)C)C(N)=O (Ac-[βAla]FKA[S5]RRT[S5]VKYRE[Nle]L-NH2; staple (Z) 5-9) | Active | – | – | – | – | – | – | –
CCCC[C@H](NC(=O)[C@H](CCC(=O)O)NC(=O)[C@H](CCCNC(=N)N)NC(=O)[C@H](Cc1ccc(O)cc1)NC(=O)[C@H](CCCCN)NC(=O)[C@H](C)NC(=O)[C@]1(C)CCC/C=C\CCC[C@](C)(NC(=O)[C@@H](NC(=O)[C@H](CCCNC(=N)N)NC(=O)[C@H](Cc2ccccc2)NC(=O)CCNC(C)=O)C(C)C)C(=O)N[C@@H](CCCNC(=N)N)C(=O)N[C@@H](CCCNC(=N)N)C(=O)N[C@@H]([C@@H](C)O)C(=O)N1)C(=O)N[C@@H](CC(C)C)C(N)=O (Ac-[βAla]FRV[S5]RRT[S5]AKYRE[Nle]L-NH2; staple (Z) 5-9) | Active | 1.5 | 0.346 | > 32 | Non-Toxic | 80% | 20 | –
CCCC[C@H](NC(=O)[C@H](CCC(=O)O)NC(=O)[C@H](CCCNC(=N)N)NC(=O)[C@H](Cc1ccc(O)cc1)NC(=O)[C@H](CCCCN)NC(=O)CNC(=O)[C@]1(C)CCC/C=C\CCC[C@](C)(NC(=O)[C@@H](NC(=O)[C@H](CCCCN)NC(=O)[C@H](Cc2ccccc2)NC(=O)CCNC(C)=O)C(C)C)C(=O)N[C@@H](CCCNC(=N)N)C(=O)N[C@@H](CCCNC(=N)N)C(=O)N[C@@H]([C@@H](C)O)C(=O)N1)C(=O)N[C@@H](CC(C)C)C(N)=O (Ac-[βAla]FKV[S5]RRT[S5]GKYRE[Nle]L-NH2; staple (Z) 5-9) | Active | 0.53 | 0.376 | > 32 | Non-Toxic | 80% | 10 | –
CCCC[C@H](NC(=O)[C@H](CCC(=O)O)NC(=O)[C@H](CCCNC(=N)N)NC(=O)[C@H](Cc1ccc(O)cc1)NC(=O)[C@H](CCCNC(=N)N)NC(=O)[C@H](C)NC(=O)[C@]1(C)CCC/C=C\CCC[C@](C)(NC(=O)[C@@H](NC(=O)[C@H](CCCCN)NC(=O)[C@H](Cc2ccccc2)NC(=O)CCNC(C)=O)C(C)C)C(=O)N[C@@H](CCCNC(=N)N)C(=O)N[C@@H](CCCNC(=N)N)C(=O)N[C@@H]([C@@H](C)O)C(=O)N1)C(=O)N[C@@H](CC(C)C)C(N)=O (Ac-[βAla]FKV[S5]RRT[S5]ARYRE[Nle]L-NH2; staple (Z) 5-9) | Active | – | – | – | – | – | – | –
CCCC[C@H](NC(=O)[C@H](CCC(=O)O)NC(=O)[C@H](CCCNC(=N)N)NC(=O)[C@H](Cc1ccc(O)cc1)NC(=O)[C@H](CCCCN)NC(=O)[C@H](C)NC(=O)[C@]1(C)CCC/C=C\CCC[C@](C)(NC(=O)[C@@H](NC(=O)[C@H](CCCCN)NC(=O)[C@H](Cc2ccccc2)NC(=O)CCNC(C)=O)C(C)C)C(=O)N[C@@H](CCCCN)C(=O)N[C@@H](CCCNC(=N)N)C(=O)N[C@@H]([C@@H](C)O)C(=O)N1)C(=O)N[C@@H](CC(C)C)C(N)=O (Ac-[βAla]FKV[S5]KRT[S5]AKYRE[Nle]L-NH2; staple (Z) 5-9) | Active | 3.3 | 1.68 | > 32 | – | – | – | –
CCCC[C@H](NC(=O)[C@H](CCC(=O)O)NC(=O)[C@H](CCCNC(=N)N)NC(=O)[C@H](Cc1ccc(O)cc1)NC(=O)[C@H](CCCCN)NC(=O)[C@H](C)NC(=O)[C@]1(C)CCC/C=C\CCC[C@](C)(NC(=O)[C@@H](NC(=O)[C@H](CCCCN)NC(=O)[C@H](Cc2ccccc2)NC(=O)CCNC(C)=O)C(C)C)C(=O)N[C@@H](CCCNC(=N)N)C(=O)N[C@@H](CCCNC(=N)N)C(=O)N[C@@H]([C@@H](C)O)C(=O)N1)C(=O)N[C@@H](CC(C)C)C(N)=O (Ac-[βAla]FKV[S5]RRT[S5]AKYRE[Nle]L-NH2; staple (Z) 5-9) | 75% | 6.6 | 0.834 | > 32 | Non-Toxic | – | – | 1.14
CCCC[C@H](NC(=O)[C@H](CCC(=O)O)NC(=O)[C@H](CCCNC(=N)N)NC(=O)[C@H](Cc1ccc(O)cc1)NC(=O)[C@H](CCCCN)NC(=O)[C@H](C)NC(=O)[C@]1(C)CCC/C=C\CCC[C@](C)(NC(=O)[C@H](CNC(=O)[C@H](CCCCN)NC(=O)[C@H](Cc2ccccc2)NC(=O)CCNC(C)=O)C(C)C)C(=O)N[C@@H](CCCNC(=N)N)C(=O)N[C@@H](CCCNC(=N)N)C(=O)N[C@@H]([C@@H](C)O)C(=O)N1)C(N)=O (Ac-[βAla]FK[X1][S5]RRT[S5]AKYRE[Nle]-NH2; staple (Z) 5-9) | Active | 35 | 0.385 | > 32 | Non-Toxic | Active | – | –
CCCC[C@H](NC(=O)[C@H](CCC(=O)O)NC(=O)[C@H](CCCNC(=N)N)NC(=O)[C@]1(C)CCC/C=C\CCC[C@](C)(NC(=O)[C@H](CCCNC(=N)N)NC(=O)[C@H](CCCNC(=N)N)NC(=O)[C@H](C)NC(=O)[C@@H](NC(=O)[C@H](CCCCN)NC(=O)[C@H](Cc2ccccc2)NC(=O)CCNC(C)=O)C(C)C)C(=O)N[C@@H](C(C)C)C(=O)N[C@@H](C)C(=O)N[C@@H](CCCCN)C(=O)N1)C(=O)N[C@@H](CC(C)C)C(N)=O (Ac-[βAla]FKVARR[S5]VAK[S5]RE[Nle]L-NH2; staple (Z) 8-12) | Active | 10.7 | 0.366 | > 32 | Non-Toxic | Active | – | –
